According to patent publication US7122359B2, “Active-site engineering of nucleotidylyltransferases and general enzymatic methods for the synthesis of natural and “unnatural” UDP- and TDP-nucleotide sugars” (priority 2000, dated 2006):
“Also recorded” adds a separate entry of the source.

Key:
[1] = target: T1, Salmonella enterica LT2 α-D-glucopyranosyl phosphate thymidylyltransferase (Ep) (Salmonella typhimurium, UniProt P26393); test: Ep-catalyzed conversion of α-D-hexopyranosyl phosphates and NTP to NDP-sugars, HPLC (FIG. 2); assay type: biochemical; conditions: for utilization as NTP substrate by Ep: NTP substrate specificity; for activity as Ep substrate with TTP: 5 mM NTP, 10 mM sugar phosphate, 30 min, 37° C.
T1 construct: made in house; host or cells: E. coli (E. coli-prfbA-C)
Source text: FIG. 2. E^p-Catalyzed Conversion of Substrates wherein superscript indicators (a)–(h) are as follows: (a) Percent conversion=[Ap/(AP+AT)]×100, where AP is the NDP-sugar product peak integration and AT represents the NTP peak integration. HRMS for all observed products reported in the supporting information. (b) Standard retention times: TDP, […]; TTP, 7.2 mm; UDP, 4.0 mm; UTP, 6.1 mm. (c) Commercially available. (d) Coelutes with commercially available standard. […] (f) Adjusted for the 2:1 α/β-28. (g) In contrast to previously published studies (See Lindquist, L; Kaiser, R.; Reeves, P. R.; Lindberg, A. A., Eur J. Biochem, 1993, 211, 763–770). (h) No products observed.
To evaluate the synthetic utility of purified thymidylyltransferase, Ep, α-D-hexopyranosyl phosphate, Mg^+2 and NTP were incubated at about 37° C. for about 30 min and the extent of product formation determined by HPLC. The results of these assays are illustrated in FIG. 2. Confirmation of product formation was based upon HPLC co-elution with commercially available standards and/or HPLC isolation and high resolution mass spectroscopy of the product. […] A reaction containing 5 mM NTP, 10 mM sugar phosphate and 5.5 mM MgCl2 in a total volume of 50 μL 50 mM potassium phosphate buffer, pH 7.5 at 37° C. was initiated by the addition of 3.52 U Ep (1 U=the amount of protein needed to produce 1 μmol TDP-D-glucose min^−1). The reaction was incubated with slow agitation for 30 min at 37° C., quenched with MeOH (50 μL), centrifuged (5 min, 14,000×g) and the supernatant was stored at −20° C. until analysis by HPLC. Samples (20 μL) were resolved on a Sphereclone 5 u SAX column (250×4.6 mm) fitted with a guard column (30×4.6 mm) using a linear gradient (20–60 mM potassium phosphate buffer, pH 5.0, 1.5 mL min^−1, A275 nm).

[2] = target: T2, wild-type Ep (Salmonella typhimurium, UniProt P26393); test: Conversion of sugar phosphates by wild-type enzyme (FIG. 11); assay type: biochemical, Salmonella enterica LT2
T2 construct: made in house; host or cells: E. coli (E. coli-prfbA-C)
Procedure: (§1) FIG. 11. Percent conversion of sugar phosphates according to the present invention by wild-type and mutant enzymes. The alterations from native substrate (Glc-1-P,1) are highlighted in red. For the mutant pool, mutants Asp41Asn, Glu62Asp, Thr201A and Trp224His were pooled, concentrated and an aliquote constituting 60 μg of each mutant (corresponding to 3.5U Ep) was utilized for the assay.
Percent conversion was determined as described in Jiang, J., Biggins, J. B. & Thorson, J. S. A General Enzymatic Method for the Synthesis of Natural and “Unnatural” UDP- and TDP-Nucleotide Sugars. J. Am. Chem. Soc. 122, 6803–6804 (2000).
(§2) Assays for product formation and steady state kinetics were accomplished using conditions similar to those described. in Jiang, J., Biggins, J. B. & Thorson, J. S. A General Enzymatic Method for the Synthesis of Natural and “Unnatural” UDP- and TDP-Nucleotide Sugars. J. Am. Chem. Soc. 122, 6803-6804 (2000). For the mutant pool assays, an aliquot which contained an eqimolar ratio of each mutant (60 μg) was utilized.

[3] = target: T1, Salmonella enterica LT2 α-D-glucopyranosyl phosphate thymidylyltransferase (Ep); test: Ep-catalyzed conversion of aminodeoxy/acetamidodeoxy sugar phosphates with inorganic pyrophosphatase, HPLC (FIG. 4); assay type: biochemical; conditions: 2.5 mM NTP, 5.0 mM sugar phosphate, 10 U inorganic pyrophosphatase, 30 min, 37° C.
Procedure: To evaluate the synthetic utility of thymidylyl-transferase, purified Ep, α-D-glucopyranosyl phosphate, Mg^+2, NTP and inorganic pyrophosphatase were incubated at 37° C. for 30 min and the extent of product formation determined by HPLC. The inorganic pyrophosphatase was included to drive the reaction forward. A reaction containing 2.5 mM NTP, 5.0 mM sugar phosphate, 5.5 mM MgCl2 and 10 U inorganic pyrophosphatase in a total volume of 50 μL 50 mM potassium phosphate buffer, pH 7.5 at 37° C. was initiated by the addition of 3.52 U Ep (1 U=the amount of protein needed to produce […] TDP-D-glucose min^−1). The reaction was incubated with slow agitation for 30 min at 37° C., quenched with MeOH (50 μL), centrifuged (5 min, 14,000×g) and the supernatant was stored at −20° C. until analysis by HPLC. Samples (30 μL) were resolved on a Sphereclone 5u SAX column (150×4.6 mm) fitted with a SecurityGuard ™ cartridge (Phenomenex; Torrance, Calif.) using a linear gradient (50–200 mM potassium phosphate buffer, pH 5.0, 1.5 mL min^−1, A275 nm).
The results of these assays are illustrated in FIG. 4. For each assay, confirmation of product formation was based upon high resolution mass spectroscopy of HPLC-isolated products and, also in some cases, HPLC co-elution with commercially available standards.
A reaction containing 2.5 mM NTP, 5.0 mM sugar phosphate, 5.5 mM MgCl2 and 10 U inorganic pyrophosphatase in a total volume of 50 μL 50 mM potassium phosphate buffer, pH 7.5 at 37° C. was initiated by the addition of 3.52 U Ep (1 U=the amount of protein needed to produce 1 μmol TDP-α-D-glucose min^−1) The reaction was incubated with slow agitation for 30 min at 37° C., quenched with MeOH (50 μL), centrifuged (5 min, 14,000×g) and the supernatant was stored at −20° C. until analysis by HPLC. Samples (30 μL) were resolved on a Sphereclone 5u SAX column (250×4.6 mm) fitted with a guard column (30×4.6 mm) using a linear gradient (50–200 mM potassium phosphate buffer, pH 5.0, 1.5 mL min^−1, A275 nm).

[4] = test system: mutant pool (Asp41Asn, Glu62Asp, Thr201A and Trp224His Ep mutants); test: Conversion of sugar phosphates by pooled Ep mutants (FIG. 11); assay type: biochemical, Salmonella enterica LT2; conditions: 60 μg of each mutant
Procedure: as §1
As a rapid means to assay the entire pool of the four newly constructed mutants, the mutants were combined and the mixture directly tested for ability to convert compounds (2), (108), (89), (102), (38), and (127). […] Those substrates turned over include […] and (127), the two sugar phosphates not accepted or poorly accepted by wild-type Ep.
as §2

[5] = target: T3, Ep Trp224His mutant (Salmonella typhimurium, UniProt P26393, W224H); test: Individual mutant analysis: Trp224His; assay type: biochemical, Salmonella enterica LT2; conditions: deconvolution of the mutant pool
T3 construct: made in house
Source text: Thr102Ala, on the other hand, was responsible for the 2-fold increase in the conversion of (108). […] Yet, cumulatively, this small set of directed mutants was able to successfully turn over three of four targeted “unnatural” substrates. […] This Ep variant will serve as an excellent foundation for second generation double mutants.
as §2

Row | Compound | activity as Ep substrate with TTP [1] | product formation with dTTP [3] | other results
1 | Nc1ccn([C@@H]2O[C@H](COP(=O)(O)OP(=O)(O)OP(=O)(O)O)[C@@H](O)[C@H]2O)c(=O)n1 [CTP, reference compound] | – | – | utilization as NTP substrate by Ep [1]: not and not accepted
2 | O=c1ccn([C@@H]2O[C@H](COP(=O)(O)OP(=O)(O)OP(=O)(O)O)[C@@H](O)[C@H]2O)c(=O)[nH]1 [UTP, reference compound] | – | – | utilization as NTP substrate by Ep [1]: utilizes
3 | C[C@H]1O[C@H](OP(=O)([O-])[O-])[C@H](O)[C@@H](O)[C@@H]1O.[Na+].[Na+] [compound 12, Disodium 6-deoxy-α-D-glucopyranosyl Phosphate] | prefers | – | –
4 | O=P([O-])([O-])O[C@H]1O[C@H](CO)C[C@H](O)[C@H]1O.[Na+].[Na+] [compound 20, Disodium 4-deoxy-α-D-glucopyranosyl Phosphate] | prefers | – | –
5 | O=P([O-])([O-])O[C@H]1O[C@H](CO)[C@@H](O)C[C@H]1O.[Na+].[Na+] [compound 28, Disodium 3-deoxy-α-D-glucopyranosyl Phosphate] | prefers | – | –
6 | O=P([O-])([O-])O[C@H]1O[C@H](CO)[C@@H](O)[C@@H](O)[C@H]1O.[Na+].[Na+] [compound 38, Disodium α-D-allopyranosyl Phosphate] | less activity | – | acceptance / conversion by wild-type Ep [2]: poor conversion
7 | O=P([O-])([O-])O[C@@H]1C[C@@H](O)[C@H](O)[C@@H](CO)O1.[Na+].[Na+] [compound 43, Disodium 2-deoxy-α-D-glucopyranosyl Phosphate] | prefers | – | Product hydrolysis observed, TDP ([1]; FIG. 2 footnote (e), TTP reaction): 7.6%; Product hydrolysis observed, UDP ([1]; FIG. 2 footnote (e), UTP reaction): 10.2%
8 | O=P([O-])([O-])O[C@H]1O[C@H](CO)[C@@H](O)[C@@H](O)[C@@H]1O.[Na+].[Na+] [compound 47, Disodium α-D-altropyranosyl Phosphate] | less activity | – | –
9 | O=P([O-])([O-])O[C@H]1O[C@H](CO)[C@H](O)[C@@H](O)[C@@H]1O.[Na+].[Na+] [compound 51, Disodium α-D-idopyranosyl Phosphate] | less activity | – | –
10 | O=P([O-])([O-])O[C@H]1O[C@H](CO)[C@H](O)[C@H](O)[C@@H]1O.[Na+].[Na+] [compound 55, Disodium α-D-talopyranosyl Phosphate] | less activity | – | –
11 | O=P(O)(O)O[C@H]1O[C@H](CO)[C@@H](O)[C@H](O)[C@@H]1O [compound 56, α-D-mannopyranosyl phosphate, reference compound] | prefers | – | –
12 | O=P(O)(O)O[C@H]1O[C@H](CO)[C@H](O)[C@H](O)[C@H]1O [compound 57, α-D-galactopyranosyl phosphate, reference compound] | prefers | – | –
13 | NC[C@H]1O[C@H](OP(=O)([O-])[O-])[C@H](O)[C@@H](O)[C@@H]1O.[Na+].[Na+] [compound 85, Disodium-(6-amino-6-deoxy-α-D-glucopyranosyl) Phosphate] | – | little or no effect | product formation with UTP ([3]; Phosphate): exception; also recorded: adverse UTP-dependent effect upon yields
14 | N[C@H]1[C@H](O)[C@@H](O)[C@@H](OP(=O)([O-])[O-])O[C@@H]1CO.[Na+].[Na+] [compound 91, Disodium-(4-amino-4-deoxy-α-D-glucopyranosyl) Phosphate] | – | little or no effect | –
15 | CC(=O)N[C@H]1[C@H](O)[C@@H](O)[C@@H](OP(=O)([O-])[O-])O[C@@H]1CO.[Na+].[Na+] [compound 92, Disodium-(4-acetamido-4-deoxy-α-D-glucopyranosyl) Phosphate] | – | less activity | –
16 | N[C@@H]1[C@@H](O)[C@@H](OP(=O)([O-])[O-])O[C@H](CO)[C@H]1O.[Na+].[Na+] [compound 96, Disodium (3-amino-3-deoxy-α-D-glucopyranosyl) Phosphate] | – | little or no effect | –
17 | CC(=O)N[C@@H]1[C@@H](O)[C@@H](OP(=O)([O-])[O-])O[C@H](CO)[C@H]1O.[Na+].[Na+] [compound 97, Disodium-(3-acetamido-3-deoxy-α-D-glucopyranosyl) Phosphate] | – | well-tolerated | product formation with UTP [3]: adverse UTP-dependent effect upon yields
18 | C[C@H]1O[C@H](OP(=O)([O-])[O-])[C@H](O)[C@@H](O)[C@@H]1N.[Na+].[Na+] [compound 102, Disodium-(4-amino-4,6-dideoxy-α-D-glucopyranosyl) Phosphate] | – | does not effect | product formation with UTP [3]: greatly diminishes
19 | N[C@H]1[C@@H](OP(=O)(O)O)O[C@H](CO)[C@@H](O)[C@@H]1O [compound 107, 2-amino-2-deoxy-α-D-glucopyranosyl phosphate, reference compound] | – | little or no effect | –
20 | O=C(O)[C@H]1O[C@H](OP(=O)(O)O)[C@H](O)[C@@H](O)[C@@H]1O [compound 127, α-D-glucopyranuronic acid 1-(dihydrogen phosphate)] | – | – | acceptance / conversion by wild-type Ep [2]: not accepted; turnover by the mutant pool [4]: turned over; conversion by Trp224His mutant [5]: responsible for converting
21 | Ethyl 2,3,4,6-tetra-O-benzyl-1-thio-β-D-gulopyranoside [compound 31] | less activity | – | –
